# Measured values from the supplement of paper PMC10307832.
# Assays:
# Assay in all cases: relative viability (nuclei count vs DMSO), 5 days (fraction); higher = more cells survive
# 201T = tested on: 201T
# In short: (§1)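 Each reported value is a median over duplicate plates. It expresses relative viability: treated-well nuclei count divided by vehicle-well nuclei count. Lung cancer cell lines in 1536-well plates were dosed by pin tool a day after seeding, alone with one drug or with a fixed anchor-drug dose plus five library-drug doses (not always all listed) in √10 steps, and nuclei were counted after 5 days.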
# NCI-H520 = tested on: NCI-H520
# In short: as §1
# NCI-H441 = tested on: NCI-H441
# In short: as §1
# LOU-NH91 = tested on: LOU-NH91
# In short: as §1
# NCI-H647 = tested on: NCI-H647
# In short: as §1
# NCI-H322M = tested on: NCI-H322M
# In short: as §1
# NCI-H1563 = tested on: NCI-H1563
# In short: as §1
# EPLC-272H = tested on: EPLC-272H
# In short: as §1
# NCI-H2170 = tested on: NCI-H2170
# In short: as §1
# PC-14 = tested on: PC-14
# In short: as §1
# NCI-H3122 = tested on: NCI-H3122
# In short: as §1
# H3255 = tested on: H3255
# In short: as §1
# UMC-11 = tested on: UMC-11
# In short: as §1
# COR-L23 = tested on: COR-L23
# In short: as §1
# HCC-15 = tested on: HCC-15
# In short: as §1
# NCI-H2405 = tested on: NCI-H2405
# In short: as §1
# NCI-H2023 = tested on: NCI-H2023
# In short: as §1
# NCI-H2347 = tested on: NCI-H2347
# In short: as §1
# NCI-H1734 = tested on: NCI-H1734
# In short: as §1
# NCI-H1650 = tested on: NCI-H1650
# In short: as §1
smiles,measurement,setting,value
COc1nc(C)cnc1NS(=O)(=O)c1cccnc1-c1ccc(-c2nnco2)cc1 [Zibotentan] + C[C@@H](Oc1cc(-c2cnn(C3CCNCC3)c2)cnc1N)c1c(Cl)ccc(F)c1Cl [Crizotinib] (partner 1 µM),relative viability,201T; first compound 0.08 µM,1.03
same,relative viability,201T; first compound 0.253 µM,0.992
same,relative viability,201T; first compound 0.8 µM,1.04
same,relative viability,201T; first compound 2.53 µM,1.07
same,relative viability,NCI-H520; first compound 0.08 µM,0.857
same,relative viability,NCI-H520; first compound 0.253 µM,0.747
same,relative viability,NCI-H520; first compound 0.8 µM,0.798
same,relative viability,NCI-H520; first compound 2.53 µM,0.893
same,relative viability,NCI-H441; first compound 0.08 µM,0.772
same,relative viability,NCI-H441; first compound 0.253 µM,0.599
same,relative viability,NCI-H441; first compound 0.8 µM,0.982
same,relative viability,NCI-H441; first compound 2.53 µM,0.898
same,relative viability,LOU-NH91; first compound 0.08 µM,0.742
same,relative viability,LOU-NH91; first compound 0.253 µM,0.717
same,relative viability,LOU-NH91; first compound 0.8 µM,0.758
same,relative viability,LOU-NH91; first compound 2.53 µM,0.729
same,relative viability,NCI-H647; first compound 0.08 µM,1.04
same,relative viability,NCI-H647; first compound 0.253 µM,1.06
same,relative viability,NCI-H647; first compound 0.8 µM,1.18
same,relative viability,NCI-H647; first compound 2.53 µM,1.23
same,relative viability,NCI-H322M; first compound 0.08 µM,0.932
same,relative viability,NCI-H322M; first compound 0.253 µM,0.901
same,relative viability,NCI-H322M; first compound 0.8 µM,0.496
same,relative viability,NCI-H322M; first compound 2.53 µM,0.934
same,relative viability,NCI-H1563; first compound 0.08 µM,0.821
same,relative viability,NCI-H1563; first compound 0.253 µM,0.512
same,relative viability,NCI-H1563; first compound 0.8 µM,0.874
same,relative viability,NCI-H1563; first compound 2.53 µM,0.895
same,relative viability,EPLC-272H; first compound 0.08 µM,0.841
same,relative viability,EPLC-272H; first compound 0.253 µM,0.841
same,relative viability,EPLC-272H; first compound 0.8 µM,1.38
same,relative viability,EPLC-272H; first compound 2.53 µM,0.951
same,relative viability,NCI-H2170; first compound 0.08 µM,1.29
same,relative viability,NCI-H2170; first compound 0.253 µM,1.15
same,relative viability,NCI-H2170; first compound 0.8 µM,1.2
same,relative viability,NCI-H2170; first compound 2.53 µM,1.2
same,relative viability,PC-14; first compound 0.08 µM,0.907
same,relative viability,PC-14; first compound 0.253 µM,0.882
same,relative viability,PC-14; first compound 0.8 µM,0.968
same,relative viability,PC-14; first compound 2.53 µM,0.899
same,relative viability,NCI-H3122; first compound 0.08 µM,0.259
same,relative viability,NCI-H3122; first compound 0.253 µM,0.234
same,relative viability,NCI-H3122; first compound 0.8 µM,0.269
same,relative viability,NCI-H3122; first compound 2.53 µM,0.282
same,relative viability,H3255; first compound 0.08 µM,0.846
same,relative viability,H3255; first compound 0.253 µM,0.841
same,relative viability,H3255; first compound 0.8 µM,0.975
same,relative viability,H3255; first compound 2.53 µM,0.963
same,relative viability,UMC-11; first compound 0.08 µM,0.606
same,relative viability,UMC-11; first compound 0.253 µM,0.64
same,relative viability,UMC-11; first compound 0.8 µM,0.62
same,relative viability,UMC-11; first compound 2.53 µM,0.568
same,relative viability,COR-L23; first compound 0.08 µM,0.838
same,relative viability,COR-L23; first compound 0.253 µM,0.65
same,relative viability,COR-L23; first compound 0.8 µM,0.68
same,relative viability,COR-L23; first compound 2.53 µM,0.758
same,relative viability,HCC-15; first compound 0.08 µM,0.918
same,relative viability,HCC-15; first compound 0.253 µM,0.748
same,relative viability,HCC-15; first compound 0.8 µM,0.843
same,relative viability,HCC-15; first compound 2.53 µM,0.885
same,relative viability,NCI-H2405; first compound 0.08 µM,0.907
same,relative viability,NCI-H2405; first compound 0.253 µM,0.882
same,relative viability,NCI-H2405; first compound 0.8 µM,0.789
same,relative viability,NCI-H2405; first compound 2.53 µM,0.881
same,relative viability,NCI-H2023; first compound 0.08 µM,0.605
same,relative viability,NCI-H2023; first compound 0.253 µM,0.475
same,relative viability,NCI-H2023; first compound 0.8 µM,0.72
same,relative viability,NCI-H2023; first compound 2.53 µM,0.631
same,relative viability,NCI-H2347; first compound 0.08 µM,0.706
same,relative viability,NCI-H2347; first compound 0.253 µM,0.476
same,relative viability,NCI-H2347; first compound 0.8 µM,0.715
same,relative viability,NCI-H2347; first compound 2.53 µM,0.672
same,relative viability,NCI-H1734; first compound 0.08 µM,0.808
same,relative viability,NCI-H1734; first compound 0.253 µM,0.699
same,relative viability,NCI-H1734; first compound 0.8 µM,0.724
same,relative viability,NCI-H1734; first compound 2.53 µM,0.724
same,relative viability,NCI-H1650; first compound 0.08 µM,1.05
same,relative viability,NCI-H1650; first compound 0.8 µM,1.01
same,relative viability,NCI-H1650; first compound 2.53 µM,0.925
